Measured values taken from patent US20160045498A1, “METHODS OF TREATING DISEASES CHARACTERIZED BY EXCESSIVE WNT SIGNALLING” (THE WALTER AND ELIZA HALL INSTITUTE OF MEDICAL RESEARCH, priority 2013, published 2016).

Experiments:
[1] = system: DLD1 cells; assay: DLD1 tumor xenografts; format: in vivo, mice (human DLD1 xenograft); conditions: DLD1 (high Wnt signaling), BALB/c nude mice, daily gavage 30 mg/kg from day 7
Experimental: c, d Tumour xenograft burden in BALB/c nude mice injected s.c. with DLD1 cells or RKO cells in PBS and receiving daily gavage with AZD1480 (30 mg/kg) or vehicle starting on the 7th day after cell inoculation. (*p≦0.0004; two sided t-test; n=8).

[2] = system: SW480 cells; assay: SW480 tumor xenografts; format: in vivo, human
Experimental: a Tumour xenograft burden in BALB/c nude mice injected s.c. with SW480 cells in matrigel and receiving daily gavage with AZD1480 (30 mg/kg) or vehicle starting on the 5th day after cell inoculation. (*p≦0.018; two sided t-test; n=12 mice), d Immunohistochemical analysis of p21 expression in xenograft tumours following 35 days of treatment with Jak2 inhibitor AZD1480 or vehicle. Scale bar=100 μm. e RT-qPCR expression analysis for SOCS3, p21 and CYCLIN D1 in SW480 xenografts from FIG. 5a and b (p=0.04; n=3 mice). One flank of female BALB/c nude mice was injected subcutaneously with 2×10^6 SW480 cells resuspended in Matrigel (BD Biosciences)/PBS (1:1) at a final volume of 200 μl. Once tumor became palpable (>100 mm^3) approximately 5 days later, mice received continuous daily gavage of the Jak2 inhibitor AZD1480 ([…] et al., 2009) (30 mg/kg, a gift from Astra-Zeneca). Gene expression analysis by RT-qPCR was performed using the SybrGreen method (ABI) as described previously ([…] et al., 2008). Fold change was calculated using the 2^-ΔΔCT method (Livak et al., 2001). Protein expression was analysed by Western blot by transferring SDS-PAGE separated protein lysates to nitrocellulose membrane and blocked either in 5% non-fat milk powder and probed with antibodies detecting p16 (Santa Cruz; #sc-467), Bmi1 (Millipore #[…]), Actin (Sigma; #A2066) or Gapdh (Santa Cruz; #sc-69778). All antibodies were diluted 1:1000 in BSA or non-fat milk powder and incubations were performed overnight. Tissues were fixed and immunohistochemistry performed as described previously (Sansom et al., 2007). Primary antibodies used were rabbit phospho-Stat3 to Tyr705 (Santa Cruz #9134s, 1:150), mouse β-catenin (Transduction Laboratories, 1:300), rabbit PCNA (Santa Cruz #7907, 1:100), rabbit […] (Santa Cruz N-262. Lot #C1309, 1:200), and goat p21 (Santa Cruz #Sc-397-G; 1:100).

[3] = system: intestinal epithelium; assay: Homeostatic turnover of the intestinal epithelium and body weight in treated mice; format: in vivo
Experimental: a qRT-PCR expression analysis for Wnt target genes from RNA extracted from AZD1480 or vehicle-treated BALB/c-nude hosts used for the xenograft experiments (*p<0.04, n≧5 mice). b Immunohistochemical analysis of cell proliferation (BrdU), goblet cells (Periodic Acid/Schiff, PAS) and Paneth cells ([…]) or vehicle Control. Scale bar 50 μm. c Weight of BALB/c-nude mice treated with either vehicle or AZD1480 (30 mg/kg, daily) between days 5 and 21 of xenograft experiment (n=8).

[4] = mice treated for 3 weeks, 30 mg/kg daily, vs vehicle

`Cc1cc(Nc2nc(N[C@@H](C)c3ncc(F)cn3)ncc2Cl)n[nH]1` [AZD1480] was tested, and the xenograft growth [1] was “sufficient to reduce xenograft growth”, the “growth of established SW480 tumours” value ([2]; BALB/c nude mice, s.c., daily gavage 30 mg/kg from day 5) was “reduced the growth” and the “CYCLIND1 expression (RT-qPCR)” value ([2]; RNA from SW480 xenografts) was “decrease”. For the same molecule, the “SOCS3 expression (RT-qPCR)” value ([2]; RNA from SW480 xenografts) was “decrease”, the “p21 expression (RT-qPCR)” value ([2]; RNA from SW480 xenografts) was “increased” and the “p21 expression in tumours (immunohistochemistry)” value ([2]; SW480 xenografts, 35 days of treatment, vs vehicle) was “increased”. The body weight ([3]; BALB/c-nude mice, 30 mg/kg daily, days 5 to 21 of xenograft experiment) was “did not affect body weight”, the “intestinal expression of prototypical Wnt target genes” value ([3]; BALB/c-nude xenograft hosts, qRT-PCR) was “remained unaffected” and the “proportion of BrDU-positive proliferating intestinal epithelium cells” value [3, 4] was “no differences”. For the same molecule, the “proportion of PAS-staining goblet cells” value [3, 4] was “no differences” and the “proportion of lysozyme-positive Paneth cells” value [3, 4] was “no differences”.
